The supplement of paper PMC5908809

What was measured:
[1] = system: normal NK cells expanded with K562-aAPC; assay: percent inhibition of viability; higher = more inhibition; settings: 72 h, IL-2 2.5 ng/mL
Description: (§1)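 Drug sensitivity and resistance testing on K562-aAPC-expanded normal NK cells: 5 concentrations (10-fold steps over a 10,000-fold range), 72 h at 37 °C, viability by CellTiter-Glo normalised to DMSO and benzethonium chloride controls; DSS from the fitted curve.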

DERL-7 (IL-2 2.5 ng/mL) [2] = assay: as above; settings: 72 h
IMC-1 (IL-2 20 ng/mL) [3] = assay: as above; settings: 72 h
KAI3 (IL-2 2.5 ng/mL) [4] = assay: as above; settings: 72 h
KHYG-1 (IL-2 2.5 ng/mL) [5] = assay: as above; settings: 72 h
NK-92 (IL-2 2.5 ng/mL) [6] = assay: as above; settings: 72 h
NK-YS (IL-2 2.5 ng/mL) [7] = assay: as above; settings: 72 h
NKL (IL-2 2.5 ng/mL) [8] = assay: as above; settings: 72 h
SNK-6 (IL-2 2.5 ng/mL) [9] = assay: as above; settings: 72 h
YT (IL-2 2.5 ng/mL) [10] = assay: as above; settings: 72 h
[11] = system: normal primary NK cells, pool 1 (3 donors) (IL-2 2.5 ng/mL); assay: as above; settings: 72 h
[12] = system: normal primary NK cells, pool 1 (3 donors), resting (IL-2 0 ng/mL); assay: as above; settings: 72 h
[13] = system: normal primary NK cells, pool 2 (3 donors) (IL-2 2.5 ng/mL); assay: as above; settings: 72 h
[14] = system: normal primary NK cells, pool 3 (3 donors) (IL-2 2.5 ng/mL); assay: as above; settings: 72 h
[15] = system: normal NK cells expanded with K562-aAPC; assay: drug sensitivity score (DSS) (DSS units); higher = more sensitive; extreme values may be limits of the assay; settings: 72 h; IL-2 2.5 ng/mL
Description: as §1

DERL-7 (IL-2 2.5 ng/mL) [16] = assay: as above; settings: 72 h
IMC-1 (IL-2 20 ng/mL) [17] = assay: as above; settings: 72 h
KAI3 (IL-2 2.5 ng/mL) [18] = assay: as above; settings: 72 h
KHYG-1 (IL-2 2.5 ng/mL) [19] = assay: as above; settings: 72 h
NK-92 (IL-2 2.5 ng/mL) [20] = assay: as above; settings: 72 h
NK-YS (IL-2 2.5 ng/mL) [21] = assay: as above; settings: 72 h
NKL (IL-2 2.5 ng/mL) [22] = assay: as above; settings: 72 h
SNK-6 (IL-2 2.5 ng/mL) [23] = assay: as above; settings: 72 h
YT (IL-2 2.5 ng/mL) [24] = assay: as above; settings: 72 h
[25] = system: normal primary NK cells, pool 1 (3 donors) (IL-2 2.5 ng/mL); assay: as above; settings: 72 h
[26] = system: normal primary NK cells, pool 1 (3 donors), resting (IL-2 0 ng/mL); assay: as above; settings: 72 h
[27] = system: normal primary NK cells, pool 2 (3 donors) (IL-2 2.5 ng/mL); assay: as above; settings: 72 h
[28] = system: normal primary NK cells, pool 3 (3 donors) (IL-2 2.5 ng/mL); assay: as above; settings: 72 h

N#Cc1ccc2[nH]c(O)c(-c3ccc(CN4CCOCC4)cn3)c2c1 [AZD-1080] (max concentration tested 10000 nM)
percent inhibition of viability [%]
Settings | 1 nM | 10 nM | 100 nM | 1000 nM | 10000 nM
DERL-7 (IL-2 2.5 ng/mL) [2] | 0.69 | -2.27 | -0.41 | -4.2 | 88.5
IMC-1 (IL-2 20 ng/mL) [3] | -6.19 | -4.98 | -2.55 | -0.22 | 68.7
KAI3 (IL-2 2.5 ng/mL) [4] | -2.28 | -5.79 | -9.97 | -21.1 | 16.1
KHYG-1 (IL-2 2.5 ng/mL) [5] | -9.77 | -11.1 | -7.95 | -10.2 | 15.1
NK-92 (IL-2 2.5 ng/mL) [6] | -5.77 | -9.41 | -10.5 | -11.2 | -14.5
NK-YS (IL-2 2.5 ng/mL) [7] | -7.92 | -9.02 | -9.19 | -12.2 | 14.6
NKL (IL-2 2.5 ng/mL) [8] | -2.17 | -4.57 | -11.4 | -10.8 | 26.2
SNK-6 (IL-2 2.5 ng/mL) [9] | -12 | -18.9 | -7.02 | -36.2 | -41.6
YT (IL-2 2.5 ng/mL) [10] | -4.13 | -5.06 | -2.61 | -7.8 | 19
[1] | -8.89 | -11.1 | -9.66 | -4.69 | 17.9
[11] | -13.1 | 1.31 | -13.3 | -7.59 | -4.41
[12] | -0.71 | 6.84 | 6.15 | -35.3 | -109
[13] | 3.02 | 1.99 | -1.33 | -5.26 | 2.97
[14] | 6.51 | 4.2 | 7.89 | -9.63 | 14.5

Settings | drug sensitivity score
DERL-7 (IL-2 2.5 ng/mL) [16] | 4.59
IMC-1 (IL-2 20 ng/mL) [17] | 3.76
KAI3 (IL-2 2.5 ng/mL) [18] | 0.09
KHYG-1 (IL-2 2.5 ng/mL) [19] | 0.09
NK-92 (IL-2 2.5 ng/mL) [20] | 0
NK-YS (IL-2 2.5 ng/mL) [21] | 0.06
NKL (IL-2 2.5 ng/mL) [22] | 0.66
SNK-6 (IL-2 2.5 ng/mL) [23] | 0
YT (IL-2 2.5 ng/mL) [24] | 0.3
[15] | 0.28
[25] | 0
[26] | 0
[27] | 0
[28] | 0.08

Cc1cc([C@@H](C)Nc2ccccc2C(=O)O)c2nc(N3CCOCC3)cc(=O)n2c1 [AZD-6482] (max concentration tested 2500 nM)
percent inhibition of viability [%]
Settings | 0.25 nM | 2.5 nM | 25 nM | 250 nM | 2500 nM
DERL-7 (IL-2 2.5 ng/mL) [2] | -4.2 | -4.4 | 3.19 | 2.6 | 17
IMC-1 (IL-2 20 ng/mL) [3] | 1.39 | 3.21 | 2.72 | 3.93 | -5.9
KAI3 (IL-2 2.5 ng/mL) [4] | -5.85 | -0.65 | -3.24 | 1.82 | 7.93
KHYG-1 (IL-2 2.5 ng/mL) [5] | -0.9 | 1.99 | 2.56 | 6.11 | 8.71
NK-92 (IL-2 2.5 ng/mL) [6] | -8.01 | -6.53 | 4.21 | 8.86 | 41.9
NK-YS (IL-2 2.5 ng/mL) [7] | -5.33 | -1.23 | -3.08 | 0.81 | 7.94
NKL (IL-2 2.5 ng/mL) [8] | -13.3 | 2.45 | -1.09 | 6.43 | -3.2
SNK-6 (IL-2 2.5 ng/mL) [9] | 17.7 | 22.5 | 28.9 | 18.4 | 9.67
YT (IL-2 2.5 ng/mL) [10] | 2.09 | 3.67 | 7.43 | 14.2 | 28.4
[1] | -0.89 | -3.51 | 0.58 | 12.4 | 16.6
[11] | -3.99 | -0.34 | 5.64 | 2.68 | 19.6
[12] | 1.92 | -14.9 | -3.13 | -1.54 | 14
[13] | -5.18 | 0.99 | 18.9 | 5.04 | 17.1
[14] | -9.49 | -6.79 | 13.8 | -3.71 | 13

Settings | drug sensitivity score
DERL-7 (IL-2 2.5 ng/mL) [16] | 0.68
IMC-1 (IL-2 20 ng/mL) [17] | 0
KAI3 (IL-2 2.5 ng/mL) [18] | 0
KHYG-1 (IL-2 2.5 ng/mL) [19] | 0
NK-92 (IL-2 2.5 ng/mL) [20] | 3.55
NK-YS (IL-2 2.5 ng/mL) [21] | 0
NKL (IL-2 2.5 ng/mL) [22] | 0
SNK-6 (IL-2 2.5 ng/mL) [23] | 0.11
YT (IL-2 2.5 ng/mL) [24] | 2.58
[15] | 1.31
[25] | 0.92
[26] | 0.12
[27] | 1.26
[28] | 0.05
